Experimental data as given in US12708630B2, “Combined therapy of 4′-thio-5-aza-2′-deoxycytidine and Venetoclax” (PINOTBIO, INC., priority 2021, dated 2026).
Like-named read-outs stand apart in the source and are kept apart here.

Assays:
[1] = system: p15 tumor suppressor gene; test: p15 tumor suppressor gene re-expression (RT-PCR) in MV4-11 cells; format: cell-based; settings: for p15 mRNA re-expression: MV4-11 cell line
Description: Therefore, to determine the re-expression of tumor suppressor genes through epigenetic regulation mechanisms induced by DNMT1 inhibition upon Aza-T-dCyd (NTX-301) treatment, MV4-11 cells, an AML cell line, were treated with Aza-T-dCyd at different concentrations. […] Table 1 below compares the degree of p15 mRNA re-expression after DNMT1 inhibitor (Aza-T-dCyd/Decitabine) treatment in the MV4-11 cell line, an AML cell (fold increase from 0 nM is shown).

CEBP/epsilon, CDKN1B = test: CEBP/epsilon and CDKN1B expression in AML cell lines; format: cell-based
Description: CEBP/epsilon and CDKNIB expression was identified and comparatively analyzed in various AML cell lines to determine the mode of target engagement induced by DNMT1 inhibition upon treatment with Aza-T-dCyd (NTX-301) (FIG. 16).

[2] = Pharmacokinetic evaluation in Mice (Table 4); settings: mouse, in vivo; for half-life: read-out: T½ (converted)
Description: Aza-T-dCyd was administered orally and intravenously at various concentrations to Mice, Rats and Dogs to determine the PK profile.

Molm13 Xenograft model = test: Molm13 Xenograft model; format: in vivo; settings: oral 0.2-1.5 mg/kg
OVCAR-3 (ovarian) = OVCAR-3 (ovarian) xenograft model; format: in vivo; settings: NSG mouse, (4) cycles
Description: The efficacy of Aza-T-dCyd was confirmed by tumor growth curves after administration of Aza-T-dCyd in various solid cancer xenograft models. […]

[3] = Preliminary toxicity experiments (Comet assay, bone marrow); format: in vivo; settings: mice
Description: As a preliminary toxicity assessment of the Aza-T-dCyd compound, preliminary toxicity experiments were conducted to determine the presence of toxicity symptoms (tissue changes) and DNA damage in bone marrow in mice after 2 weeks of systemic administration, and to assess the cellular composition in bone marrow of mice after 4 weeks of systemic administration.

GLP dog toxicology study = format: in vivo; settings: dog, 0.15, 0.5 and 1.0 mg/kg per day
Description: GLP-Tox studies have been conducted in rats and dogs, with 2 cycles of QD×5d at PO.
In a GLP dog toxicology study, Aza-T-dCyd was administered at 0.15, 0.5, and 1.0 mg/kg (3, 10, and 20 mg/m^2) per day. […] The maximum tolerated dose (MTD) was between 0.5 and 1 mg/kg (10~20 mg/m^2) per day, the highest non-toxic dose (HNSTD) was 0.5 mg/kg (10 mg/m^2) per day, and the no observed adverse effect level (NOAEL) was <0.15 mg/kg (3) mg/m^2) per day.

[4] = Mouse AUC used for the human PK simulation; settings: in vivo, mice, dose of 2.0 mg/kg
Description: The 96 mg/day must be divided by 3 or 4, resulting in 24 to 32 mg/day.

[5] = cited from earlier work
DNMT1 = DNMT1 (Homo sapiens, UniProt P26358); test: DNMT1 protein Western blotting in cancer cell lines; format: cell-based; set-up: endogenous in cells; host or cells: MV4-11, KG-1a, CCRF-CEM, NCI-H23, HCT-116, IGROV-1 (also HL-60, THP-1); settings: for DNMT1 protein (Western blotting): AML cell lines MV4-11 and KG-1a
DNMT3B = DNMT3B (Homo sapiens, UniProt Q9UBC3); test: DNMT3B expression in HL-60 xenograft tumor samples; format: in vivo, mice; set-up: tumor samples were collected on day 11 to determine the expression of DNMT1, DNMT3A, and DNMT3B; from tissue; host or cells: HL-60 xenograft tumour samples (mouse host); settings: 2 mg/kg NTX-301 or 0.75 mg/kg Decitabine intraperitoneally, day 11
Description: As the efficacy of DNMT1 inhibitors correlates with their selective profile for targeting DNMT1 and the de novo methyltransferases DNMT3A and DNMT3B, we confirmed the expression of DNMT1, DNMT3A, and DNMT3B in the Aza-T-dCyd and Decitabine treated groups in this xenograft model (FIG. 27).
In the HL-60 xenograft mice model, 2 mg/kg of NTX-301 (Aza-T-dCyd) or 0.75 mg/kg of Decitabine were administered intraperitoneally, and then tumor samples were collected on day 11 to determine the expression of DNMT1, DNMT3A, and DNMT3B. […] On the other hand, the expression levels of DNMT3A and DNMT3B were different in the Aza-T-dCyd and Decitabine treatment groups.

[6] = MV4-11, HL-60 and KG-1a cells, 72 hours
[7] = THP-1 cells, different concentrations

Sequence of DNMT1 (P26358 whole entry): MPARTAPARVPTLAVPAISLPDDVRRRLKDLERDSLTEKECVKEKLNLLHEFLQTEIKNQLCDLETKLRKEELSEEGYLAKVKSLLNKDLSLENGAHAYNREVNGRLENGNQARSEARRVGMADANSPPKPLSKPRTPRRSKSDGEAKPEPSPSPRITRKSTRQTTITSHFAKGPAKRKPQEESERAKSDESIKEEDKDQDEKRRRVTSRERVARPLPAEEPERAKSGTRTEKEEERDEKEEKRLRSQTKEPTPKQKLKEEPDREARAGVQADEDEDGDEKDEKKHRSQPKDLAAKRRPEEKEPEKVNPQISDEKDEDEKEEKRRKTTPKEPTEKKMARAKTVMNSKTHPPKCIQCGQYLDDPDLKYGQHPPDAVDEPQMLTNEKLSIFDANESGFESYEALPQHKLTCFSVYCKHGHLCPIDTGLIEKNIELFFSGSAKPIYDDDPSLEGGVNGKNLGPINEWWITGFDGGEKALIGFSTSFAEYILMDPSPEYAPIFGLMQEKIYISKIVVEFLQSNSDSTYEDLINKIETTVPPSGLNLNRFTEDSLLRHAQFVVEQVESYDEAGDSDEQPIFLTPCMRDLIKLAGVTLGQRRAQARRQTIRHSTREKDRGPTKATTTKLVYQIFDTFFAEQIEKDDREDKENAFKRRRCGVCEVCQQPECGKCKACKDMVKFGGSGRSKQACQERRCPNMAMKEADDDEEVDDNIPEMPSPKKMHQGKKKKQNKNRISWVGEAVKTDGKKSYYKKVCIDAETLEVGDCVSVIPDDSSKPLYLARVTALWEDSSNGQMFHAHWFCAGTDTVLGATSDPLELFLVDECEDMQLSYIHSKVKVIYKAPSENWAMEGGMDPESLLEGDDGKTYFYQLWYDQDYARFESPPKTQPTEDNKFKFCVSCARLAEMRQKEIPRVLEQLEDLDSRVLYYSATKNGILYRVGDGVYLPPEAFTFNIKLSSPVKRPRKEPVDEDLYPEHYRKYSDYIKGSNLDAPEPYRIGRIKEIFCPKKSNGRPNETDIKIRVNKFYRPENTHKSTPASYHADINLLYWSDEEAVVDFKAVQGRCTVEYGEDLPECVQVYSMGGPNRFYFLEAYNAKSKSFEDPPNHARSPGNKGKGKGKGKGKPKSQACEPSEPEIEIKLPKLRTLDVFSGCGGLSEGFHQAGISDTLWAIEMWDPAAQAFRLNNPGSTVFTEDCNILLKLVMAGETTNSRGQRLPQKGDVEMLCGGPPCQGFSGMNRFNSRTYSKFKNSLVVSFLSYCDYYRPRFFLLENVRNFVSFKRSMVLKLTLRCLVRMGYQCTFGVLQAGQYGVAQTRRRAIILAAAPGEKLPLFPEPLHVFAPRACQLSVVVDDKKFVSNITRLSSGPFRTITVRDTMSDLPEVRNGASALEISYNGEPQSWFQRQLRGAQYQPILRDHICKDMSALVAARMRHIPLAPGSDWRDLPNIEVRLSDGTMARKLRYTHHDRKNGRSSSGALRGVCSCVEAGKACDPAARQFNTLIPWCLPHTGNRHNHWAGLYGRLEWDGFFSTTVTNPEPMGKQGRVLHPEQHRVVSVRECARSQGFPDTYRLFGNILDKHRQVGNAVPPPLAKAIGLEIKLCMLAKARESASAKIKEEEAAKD

With `Nc1ncn([C@H]2CC(O)[C@@H](CO)S2)c(=O)n1` (stereo partly drawn) [Aza-T-dCyd, 4′-thio-5-aza-2′-deoxycytidine] the “p15 mRNA re-expression” value ([1]; 6 nM) was 1.4 ± 0.19 fold increase from 0 nM, the “p15 mRNA re-expression” value ([1]; 20 nM) was 1.7 ± 0.38 fold increase from 0 nM and the “p15 mRNA re-expression” value ([1]; 60 nM) was 2.6 ± 0.89 fold increase from 0 nM. The “p15 mRNA re-expression” value ([1]; 200 nM) was 6.1 ± 0.86 fold increase from 0 nM, the “p15 upregulation compared with decitabine” value ([1]; MV4-11 cells) was “induced p15 upregulation better than decitabine” and the “expression of p15 tumor suppressor gene (quantitative RT-PCR)” value ([1]; MV4-11 cells, 60 nM and 200 nM) was “significantly increased”. The “p15 mRNA re-expression (RT-PCR)” value ([1]; MV4-11 cells, different concentrations, FIG. 14) was “strong re-expression of p15 mRNA”, the “CEBP/epsilon and CDKN1B intracellular protein expression” value (CEBP/epsilon, CDKN1B; [6]) was “expression of CEBP/epsilon and CDKN1B was increased” and the “CEBP/epsilon and CDKN1B expression” value (CEBP/epsilon, CDKN1B; [7]) was “increased CEBP/epsilon expression and CDKN1B expression”. For the same molecule, the AUC(0-inf) ([2]; Table 4, IV 1 mg/kg) was 406 ng·h/mL, the AUC(0-t) ([2]; Table 4, IV 1 mg/kg) was 370 ng·h/mL and the Cmax ([2]; Table 4, IV 1 mg/kg) was 527 ng/mL. For the same molecule, the half-life ([2]; Table 4, IV 1 mg/kg) was 36.7 min, the AUC(0-inf) ([2]; Table 4, PO 0.5 mg/kg) was 131 ng·h/mL and the AUC(0-t) ([2]; Table 4, PO 0.5 mg/kg) was 118 ng·h/mL. The Cmax ([2]; Table 4, PO 0.5 mg/kg) was 211 ng/mL, the Tmax ([2]; Table 4, PO 0.5 mg/kg) was 30 min and the half-life ([2]; Table 4, PO 0.5 mg/kg) was 18.2 min. For the same molecule, the AUC(0-inf) ([2]; Table 4, PO 1 mg/kg) was 235 ng·h/mL, the AUC(0-t) ([2]; Table 4, PO 1 mg/kg) was 136 ng·h/mL and the Cmax ([2]; Table 4, PO 1 mg/kg) was 138 ng/mL. For the same molecule, the Tmax ([2]; Table 4, PO 1 mg/kg) was 15 min, the half-life ([2]; Table 4, PO 1 mg/kg) was 103 min and the AUC(0-inf) ([2]; Table 4, PO 3 mg/kg) was 443 ng·h/mL. It also gave an AUC(0-t) ([2]; Table 4, PO 3 mg/kg) of 303 ng·h/mL, a Cmax ([2]; Table 4, PO 3 mg/kg) of 256 ng/mL and a Tmax ([2]; Table 4, PO 3 mg/kg) of 15 min. The half-life ([2]; Table 4, PO 3 mg/kg) was 66.6 min, the AUC(0-inf) ([2]; Table 4, PO 10 mg/kg) was 1460 ng·h/mL and the AUC(0-t) ([2]; Table 4, PO 10 mg/kg) was 1340 ng·h/mL. It also gave a Cmax ([2]; Table 4, PO 10 mg/kg) of 863 ng/mL, a Tmax ([2]; Table 4, PO 10 mg/kg) of 20 min and a half-life ([2]; Table 4, PO 10 mg/kg) of 69 min. For the same molecule, the anti-cancer effect (Molm13 Xenograft model) was “potent anti-cancer effect in a dose-dependent manner”, the “toxicity signals (body weight changes)” value (Molm13 Xenograft model) was “without any toxicity signals” and the “Optimal T/C (%) (test/control)” value (OVCAR-3 (ovarian); 0.5 mg/kg) was 40%. For the same molecule, the “Optimal T/C (%) (test/control)” value (OVCAR-3 (ovarian); 1 mg/kg) was 4%, the “cellular composition of the bone marrow” value ([3]; 4 weeks of continuous administration) was “no changes in the various cells that make up the bone marrow” and the “organ damage at necropsy” value ([3]; after two weeks) was “no organ damage”. The “Comet assay for DNA damage in bone marrow” value ([3]; after two weeks of treatment, versus untreated control) was “no changes in various indicators of DNA damage”, the weight changes ([3]; two-week systemic administration) was “no significant weight changes” and the target organs (GLP dog toxicology study) was “bone marrow, thymus, gastrointestinal tract, tonsils, and testes”. For the same molecule, the AUC [4] was 369 ng·h/mL, the AUC value ([5]; 16 mg/day dose, NCI's Phase 1 trial) was “about 50 ng*h/mL” and the side effects ([5]; Phase 1a, solid tumors, dose approximately twice that of conventional decitabine) was “no significant side effects were observed”. The disease control rate ([5]; clinical trials, 32 mg/day dose) was “high disease control rate”, the “MTD dose in Phase 1” value ([5]; humans) was 32 mg and the “DNMT1 protein (Western blotting)” value (DNMT1; 20 nM) was “completely reduced DNMT1”. The “DNMT1 protein (Western blotting)” value (DNMT1) was “reduced DNMT1 protein in a concentration-dependent manner”, the DNMT1 inhibition (DNMT1; CCRF-CEM (ALL cell line) cells, FIG. 12) was “inhibits DNMT1” and the DNMT1 inhibition (DNMT1; CCRF-CEM (ALL) and solid cancer cell line) was “can inhibit DNMT1 in a concentration-dependent manner”. For the same molecule, the DNMT1 inhibition (DNMT1; KG-1a (AML cell line) cells, FIG. 11) was “inhibits DNMT1”, the DNMT1 inhibition (DNMT1; MV4-11 (AML cell line) cells, different concentrations, FIG. 10) was “inhibits DNMT1” and the “DNMT1 intracellular protein expression” value (DNMT1; [6]) was “expression of DNMT1 was inhibited”. The DNMT1 inhibition (DNMT1; NCI-H23, HCT-116 and IGROV-1 cell lines, FIG. 13) was “inhibits DNMT1”, the DNMT1 inhibition (DNMT1; [7]) was “induced DNMT1 inhibition in a dose-dependent manner” and the “DNMT3B expression level in tumor samples” value (DNMT3B) was “significantly reduced”.
